Earlier results in US11873519B2, “Composition for preventing age-related metabolic and tissue degenerative changes” (priority 2017, dated 2024).

Tested on: Ewing's sarcoma PDOX

## L-methionine α-deamino-γ-mercaptomethane lyase [rMETase]
  Serum and tumor MET levels versus controls: lower
  Tumor growth compared to untreated control mice: effectively reduced tumor growth
